Results: patent US20240101570A1 (AMGEN INC., priority 2020, published 2024)

How the values were obtained:
HCT116 MTAP null cells = assay: HCT116 MTAP null cell proliferation / viability (CellTiter-Glo, 6 days); assay type: cell-based; conditions: HCT116-MTAP null, 144 h, HCT116 MTAP null cells, 6 days, CellTiter-Glo; read-out: HCT-116 MTAP null IC50
Method in brief: (§1)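 Viability read by CellTiter-Glo after 6-day compound exposure of MTAP-null and wild-type HCT116 cells grown in RPMI 1640 with 10% FBS. Dosing used 1:3 steps from 1 or 10 μM (8-9 points) or 1:2 steps from 10 or 50 μM (22 points); IC50 taken where fitted curve crosses 50% of control.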

HCT116 WT cells = assay: HCT116 WT cell proliferation / viability (CellTiter-Glo, 6 days); assay type: cell-based; conditions: Homo sapiens, HCT-116, 144 h, HCT116 WT cells, 6 days, CellTiter-Glo; read-out: HCT-116 WT IC50
Method in brief: as §1

CC(C)(C)CN(Cc1ccc(C(F)(F)F)cn1)C(=O)c1ccc2nc(N)c3c(c2c1)COC3(C)C [Example 340, 4-amino-N-(2,2-dimethylpropyl)-3,3-dimethyl-N-((5-(trifluoromethyl)-2-pyridinyl)methyl)-1,3-dihydrofuro[3,4-c]quinoline-8-carboxamide]
IC50 (HCT116 MTAP null cells): 2950 nM
IC50 (HCT116 WT cells): > 10000 nM

CC1OCc2c1c(N)nc1ccc(C(=O)N(Cc3ccc(C(F)(F)F)cn3)C(C)C)cc21 (stereo not drawn) [Example 931, 4-amino-N-isopropyl-3-methyl-N-((5-(trifluoromethyl)pyridin-2-yl)methyl)-1,3-dihydrofuro[3,4-c]quinoline-8-carboxamide]
IC50 (HCT116 MTAP null cells): 72 nM
IC50 (HCT116 WT cells): 9600 nM

Cn1cc(N(Cc2ccc(C(F)(F)F)cn2)C(=O)c2cc3c4c(c(N)nc3cc2Cl)COC4)cn1 [Example 715, 4-amino-7-chloro-N-(1-methyl-1H-pyrazol-4-yl)-N-((5-(trifluoromethyl)-2-pyridinyl)methyl)-1,3-dihydrofuro[3,4-c]quinoline-8-carboxamide]
IC50 (HCT116 MTAP null cells): 6 nM
IC50 (HCT116 WT cells): 70 nM

CC(C)N(Cc1ccc(C(F)(F)F)cn1)C(=O)c1ccc2nc(N)c3c(c2c1)COC3 [Example 451, 4-amino-N-(2-propanyl)-N-((5-(trifluoromethyl)-2-pyridinyl)methyl)-1,3-dihydrofuro[3,4-c]quinoline-8-carboxamide]
IC50 (HCT116 MTAP null cells): 32 nM
IC50 (HCT116 WT cells): 4380 nM

C[C@H](c1ccc(F)cn1)N(C)C(=O)c1cc2c(cc1Cl)nc(N)c1cnn(C)c12 [Example 593, 4-amino-7-chloro-N-((1R)-1-(5-fluoro-2-pyridinyl)ethyl)-N,1-dimethyl-1H-pyrazolo[4,3-c]quinoline-8-carboxamide]
IC50 (HCT116 MTAP null cells): 12 nM
IC50 (HCT116 WT cells): 908 nM

C[C@H]1OCc2c1c(N)nc1cnc(C(=O)N(Cc3ccc(C(F)(F)F)nn3)C3CCC3)cc21 (single isomer, unassigned) [Example 830]
IC50 (HCT116 MTAP null cells): 80 nM
IC50 (HCT116 WT cells): 2970 nM

Cn1ncc2c(N)nc3ccc(C(=O)N(Cc4ccc(C(F)(F)F)nn4)C4CC4)cc3c21 [Example 790, 4-amino-N-cyclopropyl-1-methyl-N-((6-(trifluoromethyl)-3-pyridazinyl)methyl)-1H-pyrazolo[4,3-c]quinoline-8-carboxamide]
IC50 (HCT116 MTAP null cells): 776 nM
IC50 (HCT116 WT cells): 47100 nM

Nc1nc2ccc(C(=O)N(Cc3ccc(Br)cn3)C3CC3)cc2c2c1COC2 [Example 455, 4-amino-N-((5-bromo-2-pyridinyl)methyl)-N-cyclopropyl-1,3-dihydrofuro[3,4-c]quinoline-8-carboxamide]
IC50 (HCT116 MTAP null cells): 148 nM
IC50 (HCT116 WT cells): 4780 nM

CCN(Cc1ccc(C2CC2)cn1)C(=O)c1cc2c(cn1)nc(N)c1cnn(C)c12 [Example 541, 4-amino-N-((5-cyclopropyl-2-pyridinyl)methyl)-N-ethyl-1-methyl-1H-pyrazolo[4,3-c][1,7]naphthyridine-8-carboxamide]
IC50 (HCT116 MTAP null cells): 37 nM
IC50 (HCT116 WT cells): 548 nM

CC(C)CN(Cc1ccc(C(F)(F)F)cn1)C(=O)c1cc2c3c(c(N)nc2cn1)COC3 [Example 620, 4-amino-N-(2-methylpropyl)-N-((5-(trifluoromethyl)-2-pyridinyl)methyl)-1,3-dihydrofuro[3,4-c][1,7]naphthyridine-8-carboxamide]
IC50 (HCT116 MTAP null cells): 77 nM
IC50 (HCT116 WT cells): 3560 nM

CC(C)N(Cc1ccc(Br)nn1)C(=O)c1ccc2nc(N)c3c(c2c1)CO[C@@H]3C [Example 332, (3R)-4-amino-N-((6-bromo-3-pyridazinyl)methyl)-3-methyl-N-(2-propanyl)-1,3-dihydrofuro[3,4-c]quinoline-8-carboxamide]
IC50 (HCT116 MTAP null cells): 120 nM
IC50 (HCT116 WT cells): 6100 nM

C[C@H](c1ccc(C(F)(F)C(F)(F)F)cc1)N(C)C(=O)c1cc2c(cc1F)nc(N)c1cnn(C)c12 [Example 788, 4-amino-7-fluoro-N,1-dimethyl-N-((1R)-1-(4-(pentafluoroethyl)phenyl)ethyl)-1H-pyrazolo[4,3-c]quinoline-8-carboxamide]
IC50 (HCT116 MTAP null cells): 8 nM
IC50 (HCT116 WT cells): 134 nM
